From patent US20250270202A1, “SUBSTITUTED 4-AMINOISOINDOLINE COMPOUND, PREPARATION METHOD THEREFOR, PHARMACEUTICAL COMPOSITION THEREOF, AND USE THEREOF” (SHANGHAI INSTITUTE OF MATERIA MEDICA, CHINESE ACADEMY OF …, priority 2022, published 2025)
pIC50: −log10 of the molar value.

Legend:
Assay type in all cases: cell-based
MM.1S cells = experiment: Effect of the compound on MM.1S cell proliferation (MTS, 7 days); details: Homo sapiens, MM1.S, 168 h, 7 days, MTS, Table 1, read-out: MM.1S Cells Inhibition Activity IC50
Method: MM.1S cells were cultured in 1640 medium supplemented with 10% fetal bovine serum, then collected and diluted to the desired cell concentration after 7 days of treatment. A total of 180 μL of cell suspension was added to each well in a 96-well cell plate, ensuring 20,000 cells per well. For the control group, 20 μL of 0.2% DMSO was added to each well. Compounds were diluted in a 5-step gradient from a 10 mM stock solution, and 20 μL of each dilution was added to the compound-containing wells (with a final DMSO concentration of 0.2%). The cells were incubated in a 37° C., 5% CO2 incubator for 7 days. Afterward, 20 μL of the MTS reagent (Promega, G5430) was added to each well, followed by incubation for 3-4 hours in a 37° C., 5% CO2 incubator. Absorbance at 490 nm was measured using a microplate reader, with 690 nm absorbance as the background. The final raw data was calculated as OD490-OD690. The compound inhibition rate was calculated using the formula: […]
The IC50 for the compound's proliferative inhibition was fitted using GraphPad Prism 5.0. The experiment was repeated three times, and the average and standard deviation were calculated using three parallel experiments per trial.

Mino cells = experiment: Inhibition of cell proliferation of Mino cells (MTS, 3 days); details: Homo sapiens, MINO, 72 h, 3 days, MTS, Table 2, read-out: Mino Cells Inhibition Activity IC50
Method: Mino cells were cultured with RPMI-1640 medium supplemented with 15% fetal bovine serum, and collected. The cell concentration was diluted according to a 3-day treatment period, and 90 μL of the cell suspension was added to each well of a 96-well plate, resulting in 8000 cells per well. For control wells, 10 μL of DMSO at a final concentration of 0.2% was added. The compounds were diluted in a 5-fold gradient from a 10 mM stock solution, and 10 μL of each compound solution was added to the experimental wells (with a final DMSO concentration of 0.2%). The cells were incubated in a 37° C., 5% CO2 incubator for 3 days. After preparing the reaction mixture using the MTS reagent kit (Promega, G5430), 20 μL was added to each well, and the cells were incubated for 3-4 hours at 37° C., 5% CO2.
The absorbance at 490 nm was read using a microplate reader, with the absorbance at 690 nm used as the background. The final raw data was calculated as OD490-OD690. The inhibition rate of the compounds was calculated using the formula: Inhibition rate=(OD DMSO−OD compound)/(OD DMSO−OD blank)×100%. The IC50 values for cell proliferation inhibition of the compounds were fitted using GraphPad Prism 5.0. The experiment was repeated three times, with the average and standard deviation calculated from three parallel experiments each time.

MV-4-11 cells = experiment: Inhibition of MV-4-11 cell proliferation (MTS, 7 days); details: Homo sapiens, MV4-11, 168 h, 7 days, MTS, Table 3, read-out: MV-4-11 Cells Inhibition Activity IC50
Method: MV-4-11 cells were cultured in IMDM with 10% fetal bovine serum, collected, and diluted to the appropriate cell concentration for a 7-day treatment period. A 96-well plate was used, and 180 μL of cell suspension was added to each well, resulting in a cell count of 2,000 per well. For the control wells, 20 μL of DMSO at a final concentration of 0.2% was added. The compounds were diluted from a 10 mM stock solution in a five-fold gradient, and 20 μL was added to the compound wells (with a final DMSO concentration of 0.2%). The cells were incubated in a 37° C., 5% CO2 incubator for 7 days. After preparing the reaction solution using the MTS reagent kit (Promega, G5430), 20 μL was added to each well, and the cells were incubated in the incubator for 3-4 hours. The absorbance at 490 nm was measured using a microplate reader, with the absorbance at 690 nm as the background value. The final data was calculated as OD490-OD690. The inhibition rate of the compounds was calculated using the formula: […]
The IC50 values for proliferation inhibition were calculated using GraphPad Prism 5.0. The experiments were repeated three times, with three parallel experiments for each, and the mean and standard deviation were calculated.
The cell activity test results are shown in Table 3: A indicates IC50<1 μM, B indicates 1 µM≤IC50≤20 μM, and C indicates IC50>20 μM.

pIC50 (MM.1S cells)	pIC50 (MV-4-11 cells)	Structure (SMILES)	pIC50 (Mino cells)
> 7.82	> 6.00	O=C1CCC(N2C(=O)c3cccc(NCc4cnc(-c5ccc(O[C@H]6CCOC6)cc5)o4)c3C2=O)C(=O)N1 (stereo partly drawn) [Example 48]	> 7.22
7.52 to 7.82	> 6.00	O=C1CCC(N2C(=O)c3cccc(NCc4cnc(-c5ccc(OC6COC6)cc5)o4)c3C2=O)C(=O)N1 (stereo not drawn) [Example 49]	> 7.22
> 7.82	> 6.00	O=C1CCC(N2C(=O)c3cccc(NCc4cnc(-c5ccc(OCCO)cc5)o4)c3C2=O)C(=O)N1 (stereo not drawn) [Example 50]	> 7.22
> 7.82	> 6.00	COCCOc1ccc(-c2ncc(CNc3cccc4c3C(=O)N(C3CCC(=O)NC3=O)C4=O)o2)cc1 (stereo not drawn) [Example 52]	> 7.22
> 7.82	> 6.00	O=C1CCC(N2C(=O)c3cccc(NCc4cnc(-c5ccc(OC6CCOCC6)cc5)o4)c3C2=O)C(=O)N1 (stereo not drawn) [Example 53]	> 7.22
> 7.82	> 6.00	O=C1CCC(N2C(=O)c3cccc(NCc4cnc(-c5ccc(O[C@@H]6CCOC6)cc5)o4)c3C2=O)C(=O)N1 (stereo partly drawn) [Example 54]	> 7.22
> 7.82	> 6.00	O=C1CCC(N2C(=O)c3cccc(NCc4cnc(-c5ccc(C(F)(F)F)cc5)o4)c3C2=O)C(=O)N1 (stereo not drawn) [Example 57]	< 6.92
7.52 to 7.82	> 6.00	O=C1CCC(N2C(=O)c3cccc(NCc4cnc(-c5cccc(C(F)(F)F)c5)o4)c3C2=O)C(=O)N1 (stereo not drawn) [Example 58]	< 6.92
6.82 to 7.52	4.70 to 6.00	O=C1CCC(N2C(=O)c3cccc(NCc4cnc(-c5ccccc5C(F)(F)F)o4)c3C2=O)C(=O)N1 (stereo not drawn) [Example 59]	< 6.92
7.52 to 7.82	4.70 to 6.00	O=C1CCC(N2C(=O)c3cccc(NCc4ncc(-c5ccc(C(F)(F)F)cc5)o4)c3C2=O)C(=O)N1 (stereo not drawn) [Example 60]	< 6.92
6.82 to 7.52	< 4.70	O=C1CCC(N2C(=O)c3cccc(NCc4ncc(-c5cccc(C(F)(F)F)c5)o4)c3C2=O)C(=O)N1 (stereo not drawn) [Example 61]	< 6.92
< 6.82	4.70 to 6.00	O=C1CCC(N2C(=O)c3cccc(NCc4ncc(-c5ccccc5C(F)(F)F)o4)c3C2=O)C(=O)N1 (stereo not drawn) [Example 62]	< 6.92
7.52 to 7.82	> 6.00	O=C1CCC(N2C(=O)c3cccc(NCc4cnc(-c5cccc(Cl)c5)o4)c3C2=O)C(=O)N1 (stereo not drawn) [Example 63, 4-(((2-(3-Chlorophenyl)oxazol-5-yl)methyl)amino)-2-(2,6-Dioxopiperidin-3-yl)isoindolin-1,3-dione]	< 6.92
> 7.82	> 6.00	O=C1CCC(N2C(=O)c3cccc(NCc4ncc(-c5ccc(Cl)cc5)o4)c3C2=O)C(=O)N1 (stereo not drawn) [Example 64, 4-(((5-(4-Chlorophenyl)oxazol-2-yl)methyl)amino)-2-(2,6-Dioxopiperidin-3-yl)isoindolin-1,3-dione]	< 6.92
6.82 to 7.52	> 6.00	O=C1CCC(N2C(=O)c3cccc(NCc4ncc(-c5cccc(Cl)c5)o4)c3C2=O)C(=O)N1 (stereo not drawn) [Example 65, 4-(((5-(3-Chlorophenyl)oxazol-2-yl)methyl)amino)-2-(2,6-Dioxopiperidin-3-yl)isoindolin-1,3-dione]	< 6.92
6.82 to 7.52	> 6.00	O=C1CCC(N2C(=O)c3cccc(NCc4ncc(-c5ccccc5Cl)o4)c3C2=O)C(=O)N1 (stereo not drawn) [Example 66, 4-(((5-(2-Chlorophenyl)oxazol-2-yl)methyl)amino)-2-(2,6-Dioxopiperidin-3-yl)isoindolin-1,3-dione]	< 6.92
6.82 to 7.52	> 6.00	O=C1CCC(N2C(=O)c3cccc(NCc4cnc(-c5ccccc5Cl)s4)c3C2=O)C(=O)N1 (stereo not drawn) [Example 69, 4-(((2-(2-Chlorophenyl)thiazol-5-yl)methyl)amino)-2-(2,6-Dioxopiperidin-3-yl)isoindolin-1,3-dione]	< 6.92
> 7.82	> 6.00	O=C1CCC(N2C(=O)c3cccc(NCc4cnc(-c5ccccc5F)o4)c3C2=O)C(=O)N1 (stereo not drawn) [Example 71, 2-(2,6-Dioxopiperidin-3-yl)-4-(((2-(2-Fluorophenyl)oxazol-5-yl)methyl)amino)isoindolin-1,3-dione]	> 7.22
> 7.82	> 6.00	O=C1CCC(N2C(=O)c3cccc(NCc4ncc(-c5ccc(F)cc5)o4)c3C2=O)C(=O)N1 (stereo not drawn) [Example 72, 2-(2,6-Dioxopiperidin-3-yl)-4-(((5-(4-Fluorophenyl)oxazol-2-yl)methyl)amino)isoindolin-1,3-dione]	< 6.92
7.52 to 7.82	> 6.00	O=C1CCC(N2C(=O)c3cccc(NCc4cnc(-c5ccc(Cl)c(Cl)c5)o4)c3C2=O)C(=O)N1 (stereo not drawn) [Example 73, 4-(((2-(3,4-Dichlorophenyl)oxazol-5-yl)methyl)amino)-2-(2,6-Dioxopiperidin-3-yl)isoindolin-1,3-dione]	< 6.92
> 7.82	4.70 to 6.00	O=C1CCC(N2C(=O)c3cccc(NCc4cnc(-c5cccc(Cl)c5Cl)o4)c3C2=O)C(=O)N1 (stereo not drawn) [Example 74, 4-(((2-(2,3-Dichlorophenyl)oxazol-5-yl)methyl)amino)-2-(2,6-Dioxopiperidin-3-yl)isoindolin-1,3-dione]	< 6.92
6.82 to 7.52	> 6.00	O=C1CCC(N2C(=O)c3cccc(NCc4cnc(-c5ccc(Cl)cc5Cl)o4)c3C2=O)C(=O)N1 (stereo not drawn) [Example 76, 4-(((2-(2,4-Dichlorophenyl)oxazol-5-yl)methyl)amino)-2-(2,6-Dioxopiperidin-3-yl)isoindolin-1,3-dione]	< 6.92
6.82 to 7.52	4.70 to 6.00	O=C1CCC(N2C(=O)c3cccc(NCc4cnc(-c5cc(Cl)ccc5Cl)o4)c3C2=O)C(=O)N1 (stereo not drawn) [Example 77]	< 6.92
< 6.82	> 6.00	C[C@@H]1CN(Cc2ncc(CNc3cccc4c3C(=O)N(C3CCC(=O)NC3=O)C4=O)o2)C[C@H](C)O1 (stereo partly drawn) [Example 79, 4-(((2-(((2R,6S)-2,6-Dimethylmorpholino)methyl)oxazol-5-yl)methyl)amino)-2-(2,6-Dioxopiperidin-3-yl)isoindoline-1,3-dione]	< 6.92
< 6.82	> 6.00	O=C1CCC(N2C(=O)c3cccc(NCc4cnc(CN5CC(N6CCOCC6)C5)o4)c3C2=O)C(=O)N1 (stereo not drawn) [Example 80]	< 6.92
6.82 to 7.52	4.70 to 6.00	N#Cc1ccc(N2CCN(Cc3ncc(CNc4cccc5c4C(=O)N(C4CCC(=O)NC4=O)C5=O)o3)CC2)c(F)c1 (stereo not drawn) [Example 81]	< 6.92
< 6.82	> 6.00	O=C1CCC(N2C(=O)c3cccc(NCc4cnc(CN5CCOCC5)o4)c3C2=O)C(=O)N1 (stereo not drawn) [Example 82]	< 6.92
6.82 to 7.52	< 4.70	O=C1CCC(N2C(=O)c3cccc(NCc4cnc(CN5CCC(N6CCOCC6)CC5)o4)c3C2=O)C(=O)N1 (stereo not drawn) [Example 87]	< 6.92
< 6.82	4.70 to 6.00	CN1CCN(Cc2ncc(CNc3cccc4c3C(=O)N(C3CCC(=O)NC3=O)C4=O)o2)CC1 (stereo not drawn) [Example 91]	< 6.92
